The text below walks through data of patent publication US20260263401A1, “Topical composition and uses thereof” (UNIVERSIDADE DE COIMBRA, priority 2022, published 2026).

Several values for one entry are separate records, joined by “and”; a condition that tells them apart may be missing. Equal values may be shown once. Entries after “also recorded” stand apart in the source; their conditions may differ.

For data set [1] the following is noted: chelating agent; cited from earlier work.
The subject of data set [2] is BALB/c mice. Description: Murine local lymph node assay (BRDU-LLNA, flow cytometry). The settings on record: for skin ulcerations, allergen alone (mice ears): topical on ears, days 1-3.
Experimental: In vivo validation of the efficacy of the hydrogel enriched with the best mixture of molecules, to avoid the development of skin sensitization using the murine local lymph node assay (LLNA)
This event can be confirmed using the in vivo test Local lymph node assay (LLNA), which is evaluated by flow cytometry (FCM) using the OECD Guideline for the testing of chemicals: BRDU (bromodeoxyuridine) ELISA (enzyme linked immunosorbent assay) or FCM 442B, as previously described and revised on OECD TG 442B [41].
During the entire procedure, the daily weight record is made to assess the welfare of the animals. […]
In an embodiment, on day 5, animals are intraperitoneally injected with 100 μl of BrdU mixture (20 mg/mL) in PBS. […] LNCs are stained with trypan blue (Sigma) and counted using a hemocytometer. LNCs (1.5×10^6 cells/mL) are prepared using a commercially FITC BrdU Flow Kit-Catalog No. 559619 (BD Biosciences, San Jose, CA, USA) and further analyzed by flow cytometry using a BD Accuri™ C6 Flow Cytometer (BD Biosciences, San Jose, CA, USA). Stimulation index (SI) values for each sample are calculated using the formula described in the OECD test guideline (TG 442B) [41].
Data set [3] relates to THP-1 cells. Nature of the data set: Maturation of THP-1 cells assessed by up-regulation of co-stimulatory molecules CD86 and CD54. The settings on record: for levels of CD54 and CD86, allergen alone: 24 h, DNFB 8 μM, MI 100 μM; for CD54 and CD86 maturation levels, pre-incubation before allergen: pre-incubation (20 mM) before 24 h DNFB (8 μM) and MI (100 μM). As for the experimental part: In an embodiment, the THP-1 cell line has been used as a dendritic cell (DC) surrogate for skin sensitizers hazard, following the OECD guidelines. […] The THP-1 cells are stabilized overnight at a density of 5×10^5 cells/mL. On the day after, cells are seeded in 12-well plates at a density of 8×10^5 cells/well and incubated for 24 h with medium (control), Dimethyl sulfoxide (DMSO) (allergens solvent) or with 20 mM of each inhibitor of ACD (NAC), (LYS) or mixture (NAC+LYS). In addition, sensitization is induced with the strong skin allergen 1-fluoro-2,4-dinitrobenzene (DNFB) (8 μM) or Methylisothiazolinone (MI) (100 μM) for 24 h. At the end of the incubation period, cells are washed with ice-cold PBS supplemented with 1% (v/v) inactivated FBS, centrifuged at 300×g for 5 min at 4° C. and pellets are dissolved in ice-cold PBS supplemented with 1% (v/v) inactivated FBS. Then, 100 µL of the cell suspension are incubated with, or without, 3 μL of anti-human CD54 antibody (#353111, Biolegend, San Diego, CA, USA) or anti-human CD86 (#305414, Biolegend, San Diego, CA, USA) antibody for 30 min at 4° C. […] A total of 1×10^4 living cells are considered for analysis. The CD86 and CD54 levels are analyzed by flow cytometry with the acquisition channels FL1 and FL4. Based on the geometric mean fluorescence intensity (MFI), the relative fluorescence intensity (RFI) of CD86 and CD54 for positive control cells and chemical-treated cells is calculated according to the following equation: […]

For data set [4], the system named is NRF2 dependent genes in HaCaT. Description: Expression of NRF2 dependent genes in keratinocytes (real time PCR). It is filed as cell-based, human. The conditions noted are these: 6 h. For orientation: In qPCR the cycle at which signal appears reflects the starting amount.
Experimental: HaCaT is cultured with Dulbecco's Modified Eagle's Medium (DMEM) (Sigma-Aldrich, St. Louis, MO, USA), supplemented with 10% (v/v) heat-inactivated fetal bovine serum (FBS), 1% (v/v) antibiotic solution (100 U/mL penicillin, 100 μg/mL streptomycin) (Gibco, Carlsbad, CA, USA), 3.7 g/L sodium bicarbonate and 1 mM sodium pyruvate (Sigma-Aldrich, St. Louis, MO, USA).
In an embodiment, HaCaT cells are seeded in 6-well plates at a density of 6×10^5 cells/well and allowed to adhere for 24 h. After that, cells are incubated for 24 h with exposure medium (control) or treated with 10 mM of NAC, 10 mM of LYS, 8 μM of DNFB, 100 μM of MI, or 10 mM+DNFB, 10 mM LYS+DNFB and 10 mM+MI, 10 mM LYS+MI for 6 h or 24 h.
In an embodiment, total RNA (ribonucleic acid) is extracted from HaCaT treated cells, as previously described by our group [37], with NZYol reagent, according to the manufacturer's instructions and its concentration is determined by OD260 measurement using a NanoDrop spectrophotometer (Thermo Scientific, Wilmington, DE, USA). Samples are stored in RNA Storage Solution at −80° C. until use. Total RNA (1 g) is reverse-transcribed using the iScript Select cDNA Synthesis Kit, and real-time reverse transcriptase-polymerase chain reaction (RT-PCR) reactions are performed, in duplicate for each sample, on a Bio-Rad MyCycler iQ5 (Hercules, CA, USA), as previously described by our group [38].
In an embodiment, after amplification, a threshold is set for each gene and Ct values are calculated for all samples. Gene expression changes are analyzed using Bio-Rad CFX Maestro 1.1 system software (Hercules, CA, USA). The results are normalized using Hprt-1 as the reference gene. Primer sequences are designed using Beacon Designer software version 7.7 (Premier Biosoft International, Palo Alto, CA, USA) and thoroughly tested.
Data set [5] is described as follows: Cysteine depletion protocol (glutathione in solution depletion). The conditions noted are these: FIG. 1A. As for the experimental part: In an embodiment, Cysteine depletion Protocol-Glutathione in solution depletion protocol—“in house development protocol” was applied: • In a test tube, mix 10 μL of the 100 mM test chemical solution with 190 μL of GSH solution (20 μL of GSH 2 mM and 170 μL of PB) and Incubated at RT, protected from light, for 1 h in a tube roller (40 rpm) • […]; [test chemical]f=5 mM; [GSH]f=0.2 mM; • 20 μL of Ellman's reagent 10 mM, a thiol sensitive colorimetric reagent was added. Mix gently by tapping manually in the test tube and incubate for 10 min at RT, in a test tube rotator protected from light; • The absorbance was read in a microplate reader at 405 nm. • Note: For each assay, a fresh Glutathione stock of 50 mM (0.00768 g in 500 μL of PBS) and the second stock of 2 mM in PBS (2 μL of the […] solution+48 μl of PBS) were freshly prepared.
In an embodiment, Control and Test Chemical Preparation was applied: • DNFB is used as the positive control for the assay in every assay run. For the negative control LA is used and for the reference control three types of reference controls are included in each study: • Reference control A is made with the solvent DMSO, with incubation with Ellman's reagent and is used to calculate the maximum fluorescence or absorbance in the presence of CYS containing peptides. […]
Test Chemicals: In an embodiment, test chemicals were pre-weighted into 1.5 mL test tubes and dissolved in 1 mL of DMSO to prepare a 100 mM solution immediately before use. The weight of the test chemical to be added to the vial is determined based on the molecular weight and purity. […]
In an embodiment, for the data analysis, the percent depletion of peptide is determined by using the following formula: […]

Data set [6] relates to Poly-L-Lysine Hydrobromide (PLL). Nature of the data set: Lysine depletion protocol (in chemico reactivity towards lysine). The settings on record: 20 mM molecule incubated 1 h with DNFB 5 mM; FIG. 1B. As for the experimental part: In an embodiment, a Lysine depletion Protocol—“in house development protocol” was applied, comprising: Dissolve 0.01 g of Poly-L-Lysine Hydrobromide (PLL) (Sigma, P1399) in 100 mL of purified water (use within 2 months). Filter the solution with a syringe filter to remove aggregates and store ate 4° C. for further use. For plate coating add 50 μL of PLL to each well of the 96 black bottom glass microplate (Corning ref 45806) and incubate for 2 hours at 37° C. or 24 h at room temperature.
In an embodiment, after the coating procedure, the contents of the plate were discarded into a sink and the plate is washed 3 times with 200 μL of PBS per well. Blot any residual PBS by firmly tapping the plate upside-down on absorbent paper. 20 mM of each potential ACD inhibitory molecule/mixture is added and incubated with 70 μl of the strong skin sensitizer 1-fluoro-2,4-dinitrobenzene (DNFB) (5 mM in DMSO) for 1h; the mixture was transferred to the plate and incubated for 24 h at 37° C. The contents of the plate were discarded and the wells were washed 3 times with PBS as previously reported. 70 μL of 10 μM Fluorescein-5-Ex-Succinimidyl Ester (FSE) were added and incubated for 1 h in the dark at 37° C. The contents of the plate were discarded; the wells were washed 3 times with PBS as previously stated. The fluorescence was read in a microplate reader (Exc 485±20 nm and Em 530±30 nm). Synergy™ HT plate reader (BioTek Instruments, Inc., Winooski, VT, USA): Bottom read with a sensibility of 50. […]
In an embodiment, Reference control A is made with the solvent DMSO, with incubation with FSE and is used to calculate the maximum fluorescence or absorbance in the presence of LYS. […]
In an embodiment, Test chemicals were pre-weighted into 1.5 mL test tubes and dissolved in 1 mL of DMSO to prepare a 100 mM solution immediately before use. The weight of the test chemical to be added to the vial was determined based on the molecular weight and purity. […]
In an embodiment, for the data Analysis the percentage of peptide depletion is determined by using the following formula: […]

The test system of data set [7] is SkinEthic™ Reconstructed Human Epidermis (RHE). Nature of the data set: Skin irritation, SkinEthic Reconstructed Human Epidermis (RHE), MTT assay, OECD TG 439. It is filed as cell-based. The conditions noted are these: 42 min exposure, 42 h post-incubation, three tissue replicates, relative to PBS control, <50% = irritant, sulfate. As for the experimental part:
In an embodiment, skin irritation is evaluated using the SkinEthic™ Reconstructed Human Epidermis (RHE) model (EPISKIN Laboratories, Lyon, France), in compliance with the OECD Test Guideline No. 439-In Vitro Skin Irritation: Reconstructed
Human Epidermis Test Method. The RHE model consists of a differentiated three-dimensional epi-dermal tissue of human keratinocytes grown on a 0.5 cm^2 surface inert polycarbonate filter in a chemically defined medium at the air-liquid interface. Two specific media provided by EPISKIN are used: maintenance and growth media. […] The experiment also includes other inserts treated with PBS or 5% (w/v in water) SDS used as negative and positive controls, respectively. […] Tissue viability is assessed using the MTT (3-(4,5-dimethylthiazol-2-yl)-2,5-diphenyl-2H-tetrazolium bromide) assay. For that, tissues are incubated with MTT (1 mg/mL) at 37° C. for 3h; then the MTT solution was removed, and formazan crystals were dissolved with isopropanol. The absorbance was measured at 570 nm using a SpectraMax Plus 384 Spectrophotometer. […] If the tissue viability value is <50%, the samples are classified as irritants.

[8] abbreviates: incubated before DNFB, vs DNFB alone.
Setting [9] is: incubated before MI, vs MI alone.

As for `O=C(O)CN(CCN(CC(=O)O)CC(=O)O)CCN(CC(=O)O)CC(=O)O` [diethylenetriaminepentaacetic], the “prevention of nickel, chromium, and copper dermatitis” value in data set [1] was “can prevent”.
Consider `Cn1sccc1=O` [MI, Methylisothiazolinone, reference compound], for which the “skin ulcerations, allergen alone (mice ears)” value in data set [2] is “induce skin ulcerations”. In data set [3], the “levels of CD54 and CD86, allergen alone” value is on record as “significantly increases; also recorded: increase”.
As for `N[C@@H](CCS)C(=O)O` [HOMO, homocysteine], in data set [4] (setting [8]), the HMOX1 expression result is recorded as “significantly decrease” and the SOD1 expression entry was “significantly decrease”. For the same molecule, the TRX1 expression entry in data set [4] (setting [9]) is given as “significantly decrease”. The “CD54 and CD86 maturation levels, pre-incubation before allergen” value (“CD54 and CD86 maturation levels” for short) in data set [3] was “significantly decrease”.
With `O=[N+]([O-])c1ccc(F)c([N+](=O)[O-])c1` [DNFB, 1-fluoro-2,4-dinitrobenzene, reference compound], in data set [2] (DNFB treated ears, FIG. 13B (gel 100 mM)), the “presence of eosinophils in the ears (histology)” value is “presence of eosinophils”. In data set [2], the “skin ulcerations, allergen alone (mice ears)” value was “induce skin ulcerations”. Besides, the “levels of CD54 and CD86, allergen alone” value in data set [3] is reported as “significantly increases; also recorded: increase”.
In the case of `N[C@@H](CCC(=O)N[C@@H](CS)C(=O)NCC(=O)O)C(=O)O` [GSH, Glutathione], in data set [4] (setting [8]), the HMOX1 expression entry is “significantly decrease” and the SOD1 expression result is “significantly decrease”. Also, the HMOX1 expression entry in data set [4] (setting [9]) is “significantly decrease”. Besides, the “CD54 and CD86 maturation levels” value in data set [3] is “significantly decrease”.
`O=C(O)C(S)C(S)C(=O)O` (stereo not shown) [DMSA, 2,3 dimercaptosuccinic acid]: the “CD54 and CD86 maturation levels” value in data set [3] is on record as “significantly decrease”.
As to `CSCC[C@H](N)C(=O)O` [MET, methionine], in data set [4] (setting [9]), the GST expression entry is recorded as “significantly decrease” and the NQO1 expression result is on record as “significantly decrease”. Also, in data set [3], the “CD54 and CD86 maturation levels” value was “significantly decrease”.
`N[C@@H](CS)C(=O)O` [CYS, cysteine]: in data set [5], the “reactivity of the strong allergen DNFB towards cysteine (Glutathione depletion)” value was “significantly inhibit”. Also, the “reactivity of the strong allergen DNFB towards lysine (Lysine depletion)” value in data set [6] is “significantly inhibit”. In data set [4] (setting [8]), the HMOX1 expression entry is “significantly decrease” and the TRX1 expression entry is listed as “significantly decrease”. Moreover, the “CD54 and CD86 maturation levels” value in data set [3] is recorded as “significantly decrease”.
Take `CCCCCCCCCCCCOS(=O)(=O)[O-].[Na+]` [SDS, sodium dodecyl sulfate]: the “Tissue viability (%)” value in data set [7] (listed as SDS (5%)) was 1.41% and 1.44% and 1.62%; in data set [7] it was “significantly decrease”.
